The text below walks through data of ChEMBL document CHEMBL4251694 (ACS Med Chem Lett, 2018).

Structures are written as SMILES. pEC50, pIC50, pKd: −log10 of the molar value. The source made the active and inactive calls. The calls are words filed in the database; no cut-off is given here. Where only a bound is given, the exact number is not on record here.

The subject of data set [1] is Influenza A virus. The experiment in a line: Antiviral activity against Influenza A virus A/Udorn/72 H3N2 infected in MDCK cells assessed as reduction in virus-induced cytopathic effect by crystal violet staining based light-microscopic analysis. Format: functional, organism-based, Influenza A virus (A/udorn/1972(H3N2)). A general note: Damage to the host cells serves as the signal in cytopathic effect assays.

Data set [2] in a line: Cytotoxicity against MDCK cells after 72 hrs by crystal violet staining based spectrophotometric method. Format: cell-based, Canis lupus familiaris. The conditions noted are these: dog.
Data set [3] relates to Influenza A virus. Briefly: Antiviral activity against Influenza A virus (A/Hong Kong/68(H3N2)) infected in MDCK cells assessed as reduction in virus-induced cytopathic effect by crystal violet staining based light-microscopic analysis. The data set is classed as functional, organism-based.
The test system of data set [4] is Influenza A virus. Briefly: Antiviral activity against Influenza A virus A/WSN/33 H1N1 infected in MDCK cells assessed as reduction in virus-induced cytopathic effect by crystal violet staining based light-microscopic analysis. Format: functional, organism-based. The conditions noted are these: A/WSN/1933(H1N1).
Data set [5] deals with Influenza A virus. Briefly: Antiviral activity against Influenza A virus A/Udorn/72 H3N2 infected in MDCK cells assessed as reduction in plaque formation by crystal violet staining based assay. The data set is classed as functional, organism-based. The following applies: Influenza A virus (A/udorn/1972(H3N2)).
The target of data set [6] is Matrix protein 2 (Influenza A virus (A/Udorn/307/1972(H3N2)), UniProt P0DOF8). The experiment in a line: Inhibition of Influenza A virus A/Udorn/72 wild-type M2 proton channel expressed in Xenopus laevis oocytes assessed as blockade of inward currents at pH 5.5 after 2 mins by two-electrode voltage clamp assay. The data set is classed as cell-based, Influenza A virus (A/udorn/1972(H3N2)). Background: Two-electrode voltage clamp holds a large cell at a set potential and records current.

Data set [7] has the same target. The experiment in a line: Inhibition of Influenza A virus A/Udorn/72 wild-type M2 proton channel expressed in Xenopus laevis oocytes assessed as blockade of inward currents at pH 5.5 after 5 mins by two-electrode voltage clamp assay. The data set is classed as cell-based, Influenza A virus (A/udorn/1972(H3N2)).
The target is the same in data set [8]. The experiment in a line: Binding affinity to Influenza A virus A/Udorn/72 wild-type M2 proton channel expressed in Xenopus laevis oocytes at pH 5.5 by two-electrode voltage clamp assay. Format: cell-based, Influenza A virus (A/udorn/1972(H3N2)).
For data set [9] the target is unchanged. The experiment in a line: Binding affinity to Influenza A virus A/Udorn/72 wild-type M2 proton channel by isothermal calorimetric titration. Also on record: species or system Influenza A virus (A/udorn/1972(H3N2)). A general note: ITC needs no label: the signal is the heat of the interaction.
The subject of data set [10] is Influenza A virus. The experiment in a line: Antiviral activity against Influenza A virus A/Udorn/72 H3N2 infected in MDCK cells assessed as reduction in plaque size by crystal violet staining based assay. Format: functional, organism-based. The following applies: Influenza A virus (A/udorn/1972(H3N2)).

As a reminder, the pEC50 is the EC50 on a negative log10 scale, so that one unit is a factor of ten. As a reminder, the CC50 is the concentration giving 50% cytotoxicity. Read a high CC50 as lower toxicity to the cells. In general, pIC50 refers to the IC50 on a negative log10 scale, so that one unit is a factor of ten. For orientation: pKd means −log10 of the Kd, conventionally taken in molar units. Read a low pKd as a large Kd.

Chain of Matrix protein 2 (Influenza A virus (A/Udorn/307/1972(H3N2)), UniProt P0DOF8) (P0DOF8 whole entry): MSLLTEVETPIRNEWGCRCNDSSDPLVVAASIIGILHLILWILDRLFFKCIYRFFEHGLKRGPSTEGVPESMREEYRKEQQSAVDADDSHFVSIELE

Consider `CCOC(=O)C1=C[C@@H](OC(CC)CC)[C@H](NC(C)=O)[C@@H](N)C1` [OSELTAMIVIR], for which the pEC50 in [1] was 9.00; in data set [3], 8.70; in data set [4], 7.52. The same molecule gave a CC50 at 72 h in data set [2] of over 100 µM.
Turning to `C[C@@H](N)C12CC3CC(CC(C3)C1)C2`, the pEC50 was 7.30 in data set [1] and under 4.00 in data set [4]. Also, the CC50 at 72 h in data set [2] is over 100 µM. For the same molecule, in [5], the outcome was Active.
Consider `CC(C)(N)C12CC3CC(CC(C3)C1)C2`, for which the pIC50 in data set [6] was 5.03; in data set [7] it was 5.40. Besides, the pKd in data set [8] is 4.89; in [9], 6.89. In addition, the pEC50 in data set [1] is 8.00; in [3], 7.92; in data set [4] it was under 4.00. In addition, the CC50 at 72 h in data set [2] is over 100 µM. The outcome in data set [5] was Active.
Turning to `CC(N)C12CC3CC(CC(C3)C1)C2` (stereo unspecified) [RIMANTADINE], the pEC50 in data set [1] is 7.05; in data set [3], 7.30; in data set [4], under 4.00. For the same molecule, the CC50 at 72 h in data set [2] is over 100 µM. Also, the result in [5] was Active.
As for `C[C@H](N)C12CC3CC(CC(C3)C1)C2`, the pEC50 in [1] was 7.22; in data set [4], under 4.00. Besides, in data set [2], the CC50 at 72 h was over 100 µM. Besides, the result in [5] was Active.
For `NC12CC3CC(CC(C3)C1)C2` [AMANTADINE], the results for the pEC50 in [1] and in data set [4] were 6.11 and under 4.00, respectively. Moreover, in data set [2], the CC50 at 72 h is over 100 µM. In addition, the outcome in data set [5] was Active.
For `CCCC(N)(CCC)C12CC3CC(CC(C3)C1)C2`, the result in data set [10] was Active. Moreover, the pKd is 4.06 in [8] and 5.46 in [9]. Besides, the pEC50 was 5.97 in data set [1], 6.35 in data set [3] and under 4.00 in data set [4]. The molecule also registered a CC50 at 72 h in data set [2] of 57.3 µM. Further, the outcome in data set [5] was inactive.
For `CCC(N)(CC)C12CC3CC(CC(C3)C1)C2`, the pIC50 in data set [6] is 4.61; in data set [7] it was 4.88. Moreover, the figures for the pEC50 in data set [1], in [3] and in [4] were 6.39, 6.34 and under 4.00, respectively. The CC50 at 72 h in data set [2] is over 100 µM. In [9], this molecule had a pKd of 5.34. For the same molecule, in data set [5], the outcome was Active.
